Data published in PMC3681751, “Identification of a Novel Antimicrobial Peptide from Human Hepatitis B Virus Core Protein Arginine-Rich Domain (ARD)” (PLoS Pathogens, 2013).
Read-outs that look alike come from different tables or passages of the source.

Experiments:
[1] = system: P. aeruginosa (ATCC 9027); assay type: cell-based, Pseudomonas aeruginosa; details: ampicillin-resistant strain, triplicate
Procedure, shortened: (§1)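 Bacteria were grown overnight at 37°C in Mueller–Hinton broth and diluted at mid-log phase to 10^6 CFU/ml in pH 7.2 sodium phosphate/NaCl buffer. Peptide dilutions in that buffer were added, then 3 h static incubation at 37°C. Plating on agar overnight gave the minimal bactericidal concentration.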

[2] = system: P. aeruginosa (ATCC 27853); assay type: cell-based, Pseudomonas aeruginosa; details: ampicillin-resistant strain, triplicate
Procedure, shortened: as §1

[3] = system: C. albicans (ATCC 10231); assay type: cell-based, Candida albicans; details: fungi, triplicate
Description: (§2) The antimicrobial activities of HBc ARD peptides were tested using a number of bacterial strains from ATCC, including Pseudomonas aeruginosa Migula strain (ATCC 27853, ampicillin-resistant), Pseudomonas aeruginosa Migula strain (ATCC 9027, ampicillin-resistant), Klebsiella pneumoniae strain (ATCC 17593), Escherichia coli strain (ATCC 25922), Staphylococcus aureus subsp. strain (ATCC 25923, methicillin-resistant), Staphylococcus aureus subsp. strain (ATCC 29213, methicillin-resistant), Staphylococcus aureus subsp. strain (ATCC 19636, methicillinresistant), and Candida albicans strain (ATCC 10231).
(§3) All peptides were purchased from Yao-Hong Biotechnology Inc. (Taipei, Taiwan). Vendors provided data of peptide characterizations, including HPLC and Mass (data not shown). Antimicrobial activity was determined as described with some modifications as detailed below. Bacteria were grown overnight in Mueller–Hinton broth (Difco) at 37°C, and during the mid-logarithmic phase, bacteria were diluted to 10^6 CFU (colony formation unit)/ml in phosphate buffer (10 mM sodium phosphate and 50 mM sodium chloride, pH 7.2). Peptides were serially diluted in the same buffer. Fifty microliter (µl) of bacteria was mixed with fifty µl of peptides at varying concentrations followed by incubation at 37°C for 3 hours without shaking. At the end of incubation, bacteria were placed on Mueller-Hinton broth agar plates, and allowed growth at 37°C overnight for measurement of minimal bactericidal concentration (MBC). […] All peptides were tested in triplicate.

[4] = system: HepG2 cells; test: Cytotoxicity, MTT assay; assay type: cell-based, human; details: 1 hour at 37°C; HBc147-183 at 100 µM, melittin at 3.125 µM; triplicates
Description: (§4) Cytotoxicity was measured for HepG2, Huh7, HEK293, and Vero cells by MTT assay. Cells were seeded at 10^4 cells/well in a 96-well plate and serial dilutions of peptides were added into each well. PBS was used as a negative control and melittin was used as a positive control. After 1 hour of incubation, the medium were replaced by fresh medium containing 10% MTT solution (Promega), and the plate was incubated for 4 hours in 5% CO2 at 37°C. The absorbance at the wavelength of 595 nm was measured by an ELISA reader (Bio-Rad model 680).

[5] = system: HEK293 cells; test: Cytotoxicity, MTT assay; assay type: cell-based, human; details: 1 hour at 37°C; HBc147-183 at 100 µM, melittin at 3.125 µM; triplicates
Description: as §4

[6] = system: Huh7 cells; test: Cytotoxicity, MTT assay; assay type: cell-based, human; details: 1 hour at 37°C; HBc147-183 at 100 µM, melittin at 3.125 µM; triplicates
Description: as §4

[7] = system: E. coli (ATCC 25922); assay type: cell-based, Escherichia coli; details: triplicate
Procedure, shortened: as §1

[8] = system: K. pneumonia (ATCC 13884); assay type: cell-based, Klebsiella pneumoniae; details: triplicate
[9] = system: Vero cells; test: Cytotoxicity, MTT assay; assay type: cell-based, monkey; details: 1 hour at 37°C; HBc147-183 at 100 µM, melittin at 3.125 µM; triplicates
Description: as §4

[10] = system: S. aureus (ATCC 29213); assay type: cell-based, Staphylococcus aureus; details: methicillin-resistant strain, triplicate
Description: as §2, §3

[11] = system: S. aureus (ATCC 25923); assay type: cell-based, Staphylococcus aureus; details: methicillin-resistant strain, triplicate
Description: as §2, §3

[12] = system: S. aureus (ATCC 19636); assay type: cell-based, Staphylococcus aureus; details: methicillin-resistant strain, triplicate
Description: as §2, §3

[13] = 3 h at 37°C in 10 mM sodium phosphate, 50 mM NaCl, pH 7.2, 10^6 CFU/ml, ND = not detectable
[14] = 3 h at 37°C in phosphate buffer pH 7.2

`CC[C@H](C)[C@H](NC(=O)CN)C(=O)NCC(=O)N[C@@H](C)C(=O)N[C@H](C(=O)N[C@@H](CC(C)C)C(=O)N[C@@H](CCCCN)C(=O)N[C@H](C(=O)N[C@@H](CC(C)C)C(=O)N[C@H](C(=O)N[C@H](C(=O)NCC(=O)N[C@@H](CC(C)C)C(=O)N1CCC[C@H]1C(=O)N[C@@H](C)C(=O)N[C@@H](CC(C)C)C(=O)N[C@H](C(=O)N[C@@H](CO)C(=O)N[C@@H](Cc1c[nH]c2ccccc12)C(=O)N[C@H](C(=O)N[C@@H](CCCCN)C(=O)N[C@@H](CCCNC(=N)N)C(=O)N[C@@H](CCCCN)C(=O)N[C@@H](CCCNC(=N)N)C(=O)N[C@@H](CCC(N)=O)C(=O)N[C@@H](CCC(N)=O)C(N)=O)[C@@H](C)CC)[C@@H](C)CC)[C@@H](C)O)[C@@H](C)O)C(C)C)C(C)C` [Melittin, reference compound] was tested, and the “Antimicrobial activity, MBC” value [1, 13] was 2 µM, the “Antimicrobial activity, MBC” value [1, 14] was 5.7 µg/mL and the “Antimicrobial activity, MBC” value [2, 13] was 2 µM. The “Antimicrobial activity, MBC” value [2, 14] was 5.7 µg/mL, the “Antimicrobial activity, MBC” value ([3]; 3 h at 37°C in 10 mM sodium phosphate, 50 mM NaCl, pH 7.2, ND = not detectable) was 4 µM and the “Antimicrobial activity, MBC” value [3, 14] was 11.4 µg/mL. For the same molecule, the “Cell viability / cytotoxicity (MTT)” value [4] was “significantly decreased”, the “Cell viability / cytotoxicity (MTT)” value [5] was “significantly decreased” and the “Cell viability / cytotoxicity (MTT)” value [6] was “significantly decreased”. The “Antimicrobial activity, MBC” value [7, 13] was 2 µM, the “Antimicrobial activity, MBC” value [7, 14] was 5.7 µg/mL and the “Antimicrobial activity, MBC” value [8, 13] was 2 µM. For the same molecule, the “Antimicrobial activity, MBC” value [8, 14] was 5.7 µg/mL, the “Cell viability / cytotoxicity (MTT)” value [9] was “significantly decreased” and the “Antimicrobial activity, MBC” value [10, 13] was 1 µM. The “Antimicrobial activity, MBC” value [10, 14] was 2.85 µg/mL, the “Antimicrobial activity, MBC” value [11, 13] was 2 µM and the “Antimicrobial activity, MBC” value [11, 14] was 5.7 µg/mL. The “Antimicrobial activity, MBC” value [12, 13] was 1 µM and the “Antimicrobial activity, MBC” value [12, 14] was 2.85 µg/mL.
